According to ChEMBL document CHEMBL4177663, “Discovery and structure-activity relationship study of 1,3,6-trisubstituted 1,4-diazepane-7-ones as novel human kallikrein 7 inhibitors” (Bioorg Med Chem Lett, 2017):

How the values were obtained:
[1] = molecular target: Kallikrein-7 (Homo sapiens, UniProt P49862); experiment: Inhibition of thermolysin activated recombinant human C-terminal 10-His tagged KLK7 preincubated for 10 mins followed by MOCAc-Arg-Pro-Lys-Pro-Val-Glu-Nva-Trp-Arg-Lys(Dnp)-NH2 peptide substrate addition measured after 30 mins by fluorescence analysis
Chain of Kallikrein-7 (P49862 whole entry): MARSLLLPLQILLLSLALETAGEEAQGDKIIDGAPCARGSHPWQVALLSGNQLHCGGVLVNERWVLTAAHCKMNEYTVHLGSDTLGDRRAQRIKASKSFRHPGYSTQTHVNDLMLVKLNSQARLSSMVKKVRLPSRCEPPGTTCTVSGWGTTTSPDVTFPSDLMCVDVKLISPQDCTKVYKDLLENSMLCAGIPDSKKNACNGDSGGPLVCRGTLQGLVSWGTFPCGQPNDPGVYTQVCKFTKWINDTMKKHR

[2] = molecular target: T1, Kallikrein-5 (Homo sapiens, UniProt Q9Y337); experiment: Inhibition of recombinant human C-terminal 10-His tagged KLK5 preincubated for 10 mins followed by Boc-Val-Pro-Arg-MCA peptide substrate addition measured after 30 mins by fluorescence analysis
T1 sequence (Q9Y337 whole entry): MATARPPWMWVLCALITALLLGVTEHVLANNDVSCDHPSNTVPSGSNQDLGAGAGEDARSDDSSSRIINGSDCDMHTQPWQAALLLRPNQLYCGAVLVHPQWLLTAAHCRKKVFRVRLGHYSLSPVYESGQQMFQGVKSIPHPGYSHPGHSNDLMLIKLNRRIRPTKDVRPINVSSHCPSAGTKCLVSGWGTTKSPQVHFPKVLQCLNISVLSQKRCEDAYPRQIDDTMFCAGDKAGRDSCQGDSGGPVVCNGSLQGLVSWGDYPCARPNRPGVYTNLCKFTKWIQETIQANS

[3] = molecular target: Trypsin (Homo sapiens, UniProt P07477+P07478+P35030); experiment: Inhibition of human trypsin preincubated for 10 mins followed by Boc-Gln-Ala-Arg-MCA peptide substrate addition measured after 30 mins by fluorescence analysis; type: protein assay
[4] = Inhibition of human chymotrypsin preincubated for 10 mins followed by Suc-Ala-Ala-Pro-Phe-MCA peptide substrate addition measured after 30 mins by fluorescence analysis

SMILES | IC50 [1] | IC50 [2] | IC50 [3] | IC50 [4]
COc1ccc(Cl)cc1C[C@@H]1CN/C(=N\N(C)C)CN(CC(=O)Nc2ccccc2C(=O)O)C1=O | > 30 µM | – | – | –
CO/N=C1/CN(CC(=O)Nc2cccc(C(=O)O)c2)C(=O)[C@H](Cc2cc(Cl)ccc2OC)CN1 | 14 µM | – | – | –
CCO/N=C1/CN(CC(=O)Nc2cccc(C(=O)O)c2)C(=O)[C@H](Cc2cc(Cl)ccc2OC)CN1 | 13 µM | – | – | –
COc1ccc(Cl)cc1C[C@@H]1CN/C(=N\N(C)C)CN(CC(=O)Nc2cccc(S(C)(=O)=O)c2)C1=O | 0.82 µM | > 30 µM | > 30 µM | 24 µM
COc1ccc(Cl)cc1C[C@@H]1CNC(=O)CN(CC(=O)Nc2ccc(O)c(C(=O)O)c2)C1=O | > 30 µM | – | – | –
COc1ccc(Cl)cc1C[C@@H]1CN/C(=N\N(C)C)CN(CC(=O)Nc2cccc(C(=O)O)c2)C1=O.Cl | 1.9 µM | > 30 µM | > 30 µM | 30 µM
COc1ccc(Cl)cc1C[C@@H]1CN/C(=N\N(C)C)CN(CC(=O)Nc2cccnc2)C1=O | 9 µM | – | – | –
COc1ccc(Cl)cc1C[C@@H]1CN/C(=N\Oc2cc(F)cc(F)c2)CN(CC(=O)Nc2ccc(O)c(C(=O)O)c2)C1=O | 5.8 µM | – | – | –
COc1ccc(Cl)cc1C[C@@H]1CN/C(=N\OCC(C)C)CN(CC(=O)Nc2cccc(C(=O)O)c2)C1=O | > 30 µM | – | – | –
COc1ccc(Cl)cc1C[C@@H]1CN/C(=N\N(C)C)CN(CC(=O)Nc2ccccc2)C1=O | 4.5 µM | – | – | –
COc1ccc(Cl)cc1C[C@@H]1CN/C(=N\O)CN(CC(=O)Nc2cccc(C(=O)O)c2)C1=O | > 30 µM | – | – | –
COc1ccc(Cl)cc1C[C@H]1CN/C(=N\Oc2cc(F)cc(F)c2)CN(CC(=O)Nc2ccc(O)c(C(=O)O)c2)C1=O | > 30 µM | – | – | –
COc1ccc(Cl)cc1C[C@@H]1CN/C(=N\N(C)C)CN(CC(=O)Nc2ccc(C(=O)O)cc2)C1=O | 30 µM | – | – | –
COc1ccc(Cl)cc1C[C@@H]1CN/C(=N\Oc2c(F)cccc2F)CN(CC(=O)Nc2cccc(C(=O)O)c2)C1=O | 5.4 µM | – | – | –
COc1ccc(Cl)cc1C[C@@H]1CN/C(=N\N(C)C)CN(CC(=O)Nc2ccccn2)C1=O | 16 µM | – | – | –
